The source of these data is US7495104B2, “Quinoline or quinazoline derivatives inhibiting auto-phosphorylation of fibroblast growth factor receptors” (Kirin Beer Kabushiki Kaisha, priority 2001, dated 2009).

A value given as a limit tells only on which side of the number the result lay.

Bek, sequence (P21802 431-767 limits assumed): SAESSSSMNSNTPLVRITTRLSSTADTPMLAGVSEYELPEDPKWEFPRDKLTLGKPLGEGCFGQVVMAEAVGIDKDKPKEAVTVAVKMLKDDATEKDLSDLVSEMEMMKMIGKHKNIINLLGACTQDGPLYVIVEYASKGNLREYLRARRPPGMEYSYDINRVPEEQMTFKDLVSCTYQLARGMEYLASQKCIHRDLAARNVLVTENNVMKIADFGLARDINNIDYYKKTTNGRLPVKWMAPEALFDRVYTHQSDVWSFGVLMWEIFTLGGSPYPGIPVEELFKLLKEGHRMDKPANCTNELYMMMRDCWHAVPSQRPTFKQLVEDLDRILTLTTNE

This assay has as its target Bek (Homo sapiens, UniProt P21802). As to the kind of experiment: Inhibitory activity against Bek-autophosphorylation using ELISA method in OCUM-2MD3 cells. In kind it is cell-based. As to conditions: 1 hr with compound, read-out: IC50 (concentration necessary for inhibiting 50% of Bek-phosphorylation). Summed up:
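OCUM-2MD3 human scirrhous gastric cancer cells in 0.1% FCS were exposed to compound for 1 hr at 37° C, then lysed. Phospho-tyrosine proteins were captured with anti-phosphotyrosine antibody, probed with anti-Bek antibody and peroxidase read-out (A450). Positive control (1000 nM) set 0%, untreated 100%; IC50 from multi-level dilutions.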
On the technique in general: ELISA stands for enzyme-linked immunosorbent assay.
For `COc1cc2nccc(Oc3ccc(Nc4ccc(N5CCOCC5)cc4)cc3)c2cc1OC` [Compound 44, [4-(6,7-Dimethoxyquinolin-4-yloxy)phenyl]-(4-morpholin-4-ylphenyl)amine], the IC50 stood at 0.0765 µM.
Under `COc1cc2c(Oc3ccc(NC(=O)NCCC(C)(C)C)c(F)c3)ccnc2cc1OCCN1CCC(CCO)CC1` [Compound 301, 1-(3,3-Dimethyl-butyl)-3-[2-fluoro-4-(7-{2-[4-(2-hydroxy-ethyl)-piperidin-1-yl]-ethoxy}-6-methoxy-quinolin-4-yloxy)-phenyl]-urea] stands 0.0384 µM; under `COc1cc2c(Oc3ccc(NC(=O)NCCC(C)(C)C)c(F)c3)ccnc2cc1OCCCN1CCC(CCO)CC1` [Compound 304, 1-(3,3-Dimethyl-butyl)-3-[2-fluoro-4-(7-{3-[4-(2-hydroxy-ethyl)-piperidin-1-yl]-propoxy}-6-methoxy-quinolin-4-yloxy)-phenyl]-urea], 0.0312 µM; under `COc1cc2nccc(Oc3ccc(NC(=O)NCCC(C)(C)C)c(C)c3C)c2cc1OC` [Compound 141, 1-[4-(6,7-Dimethoxy-quinolin-4-yloxy)-2,3-dimethyl-phenyl]-3-(3,3-dimethyl-butyl)-urea], 0.0586 µM.
Take `COc1cc2nccc(Oc3ccc(Oc4ccc(C(C)(C)C)cc4)cc3)c2cc1OC` [Compound 30, 4-[4-(4-Tert-butylphenoxy)phenoxy]-6,7-dimethoxyquinoline]: the IC50 came to 3.26 µM.
Take `CCNCC(O)COc1cc2nccc(Oc3ccc(Nc4ccc(C(C)(C)C)cc4)cc3)c2cc1OC` (centres unmarked) [Compound 66, 1-{4-[4-(4-Tert-butylphenylamino)phenoxy]-6-methoxyquinolin-7-yloxy}-3-ethylaminopropan-2-ol]: the IC50 stood at 0.199 µM.
`COc1cc2c(Oc3ccc(NC(=O)NCCC(C)(C)C)cc3)ccnc2cc1OCC(=O)N1CCOCC1` [Compound 375, 1-(3,3-Dimethyl-butyl)-3-{4-[6-methoxy-7-(2-morpholin-4-yl-2-oxo-ethoxy)-quinolin-4-yloxy]-phenyl}-urea]: the IC50 is 0.028 µM.
For `COc1cc2c(Oc3ccc(NC(=O)NCCC(C)(C)C)cc3F)ccnc2cc1OCCN1CCC(O)CC1` [Compound 296, 1-(3,3-Dimethyl-butyl)-3-(3-fluoro-4-{7-[2-(4-hydroxy-piperidin-1-yl)-ethoxy]-6-methoxy-quinolin-4-yloxy}-phenyl)-urea] the value was 0.0198 µM.
On to `COc1cc2c(Oc3ccc(Nc4ccc(C(C)(C)C)cc4)cc3)ccnc2cc1OCCN1CCC(N2CCCC2)CC1` [Compound 243, (4-Tert-butyl-phenyl)-(4-{6-methoxy-7-[2-(4-pyrrolidin-1-yl-piperidin-1-yl)-ethoxy]-quinolin-4-yloxy}-phenyl)-amine], for which the IC50 turned out to be 0.342 µM.
Under `COc1cc2c(Oc3ccc(Nc4ccc(C(C)(C)C)cc4)cc3)ccnc2cc1OCCCl` [Compound 22, (4-Tert-butylphenyl)-{4-[7-(2-chloroethoxy)-6-methoxyquinolin-4-yloxy]phenyl}amine] stands 0.189 µM.
Under `COc1cc2nccc(Oc3ccc(Nc4ccc(F)cc4)cc3)c2cc1OC` [Compound 4, [4-(6,7-Dimethoxyquinolin-4-yloxy)phenyl]-(4-fluorophenyl)amine] stands 3.73 µM; under `COc1cc2c(Oc3ccc(NC(=O)NCCC(C)(C)C)c(Cl)c3)ccnc2cc1OCCCN1CCOCC1` [Compound 182, 1-{2-Chloro-4-[6-methoxy-7-(3-morpholin-4-yl-propoxy)-quinolin-4-yloxy]-phenyl}-3-(3,3-dimethyl-butyl)-urea], 0.0095 µM.
Under `COc1cc2c(Oc3ccc(Nc4ccc(C(C)(C)C)cc4)cc3)ccnc2cc1OCCCN(C)CCO` [Compound 52, 2-[(3-{4-[4-(4-Tert-butylphenylamino)phenoxy]-6-methoxy-quinolin-7-yloxy}propyl)methylamino]ethanol] stands 0.033 µM; under `COc1cc2c(Oc3ccc(NC(=O)NCCC(C)(C)C)cc3)ccnc2cc1OCCN1CCC(N2CCCCC2)CC1` [Compound 123, 1-{4-[7-(2-[1,4′]bipiperidineyl-1′-yl-ethoxy)-6-methoxy-quinolin-4-yloxy]-phenyl}-3-(3,3-dimethyl-butyl)-urea], < 0.01 µM.
As for `COc1cc2c(Oc3ccc(NC(=O)NCCC(C)(C)C)c(Cl)c3)ccnc2cc1OCCN1C(=O)c2ccccc2C1=O` [Compound 173, 1-(2-Chloro-4-{7-[2-(1,3-dioxo-1,3-dihydro-isoindol-2-yl)-ethoxy]-6-methoxy-quinolin-4-yloxy}-phenyl)-3-(3,3-dimethyl-butyl)-urea], the IC50 worked out at 0.153 µM.
Under `COc1ccc(Nc2ccc(Oc3ccnc4cc(OC)c(OC)cc34)cc2)cc1` [Compound 1, [4-(6,7-Dimethoxyquinolin-4-yloxy)phenyl]-(4-methoxyphenyl)-amine] stands 3.93 µM; under `COc1cc2c(Oc3ccc(Nc4ccc(C(C)(C)C)cc4)cc3)ccnc2cc1OCCN1CCN(C)CC1` [Compound 33, (4-Tert-butylphenyl)-(4-{6-methoxy-7-[2-(4-methylpiperazin-1-yl)ethoxy]quinolin-4-yloxy}phenyl)amine], 0.155 µM.
For the compound `CCN(CCO)CCOc1cc2nccc(Oc3ccc(NC(=O)NCCC(C)(C)C)cc3)c2cc1OC` [Compound 340, 1-(3,3-Dimethyl-butyl)-3-[4-(7-{2-[ethyl-(2-hydroxy-ethyl)-amino]-ethoxy}-6-methoxy-quinolin-4-yloxy)-phenyl]-urea], the IC50 worked out at 0.0183 µM.
Under `COc1cc2c(Oc3ccc(NC(=O)NCCC(C)(C)C)cc3F)ccnc2cc1OCCCN1CCC(CCO)CC1` [Compound 298, 1-(3,3-Dimethyl-butyl)-3-[3-fluoro-4-(7-{3-[4-(2-hydroxy-ethyl)-1-piperidin-1-yl]-propoxy}-6-methoxy-quinolin-4-yloxy)-phenyl]-urea] stands 0.0417 µM; under `COc1cc2c(Oc3ccc(Nc4ccc(C(C)(C)C)cc4)cc3)ccnc2cc1OCCCCN1CCOCC1` [Compound 25, (4-Tert-butylphenyl)-{4-[6-methoxy-7-(4-morpholin-4-ylbutoxy)-quinolin-4-yloxy]phenyl}amine], 0.199 µM.
For `COc1cc2c(Oc3ccc(NC(=O)NCCC(C)(C)C)c(Cl)c3)ccnc2cc1OCCCN1CCC(C)CC1` [Compound 207, 1-(2-Chloro-4-{6-methoxy-7-[3-(4-methyl-piperidin-1-yl)-propoxy]-quinolin-4-yloxy}-phenyl)-3-(3,3-dimethyl-butyl)-urea] the value was 0.06 µM; for `COc1cc2c(Oc3ccc(NC(=O)NCCC(C)(C)C)cc3)ccnc2cc1OCCN(CCO)C(C)C` [Compound 370, 1-(3,3-Dimethyl-butyl)-3-[4-(7-{2-[(2-hydroxy-ethyl)-isopropyl-amino]-ethoxy}-6-methoxy-quinolin-4-yloxy)-phenyl]-urea], 0.13 µM.
For `COc1cc2c(Oc3ccc(Nc4ccc(C(C)(C)C)cc4)cc3Cl)ccnc2cc1OCCCN1CCC(CO)CC1` [Compound 310, [1-(3-{4-[4-(4-Tert-butyl-phenylamino)-2-chloro-phenoxy]-6-methoxy-quinolin-7-yloxy}-propyl)-piperidin-4-yl]-methanol] the value was 0.184 µM; for `COc1cc2c(Oc3ccc(NC(=O)NCCC(C)(C)C)c(F)c3)ccnc2cc1OCCCNCCO` [Compound 332, 1-(3,3-Dimethyl-butyl)-3-(2-fluoro-4-{7-[3-(2-hydroxy-ethylamino)-propoxy]-6-methoxy-quinolin-4-yloxy}-phenyl)-urea], 0.0108 µM.
For `COc1cc2c(Oc3ccc(NC(=O)NCCC(C)(C)C)cc3Cl)ccnc2cc1OCCCN1CC(C)OC(C)C1` (centres unmarked) [Compound 319, 1-(3-Chloro-4-{7-[3-(2,6-dimethyl-morpholin-4-yl)-propoxy]-6-methoxy-quinolin-4-yloxy}-phenyl)-3-(3,3-dimethyl-butyl)-urea], the IC50 worked out at 0.022 µM.
Under `COc1cc2c(Oc3ccc(NC(=O)NCCC(C)(C)C)cc3)ccnc2cc1OCCCBr` [Compound 147, 1-{4-[7-(3-Bromo-propoxy)-6-methoxy-quinolin-4-yloxy]-phenyl}-3-(3,3-dimethyl-butyl)-urea] stands 0.654 µM.
For `COc1cc2c(Oc3ccc(Nc4ccc(C(C)(C)C)cc4)cc3)ccnc2cc1OCCCN1CCCC1` [Compound 53, (4-Tert-butylphenyl)-{4-[6-methoxy-7-(3-pyrrolidin-1-ylpropoxy)-quinolin-4-yloxy]phenyl}amine] the value was 0.038 µM.
For `CCN(CC)CC(O)COc1cc2nccc(Oc3ccc(Nc4ccc(C(C)(C)C)cc4)cc3)c2cc1OC` (centres unmarked) [Compound 60, 1-{4-[4-(4-Tert-butyl-phenylamino)phenoxy]-6-methoxyquinolin-7-yloxy}-3-diethylaminopropan-2-ol] the value was 0.203 µM; for `COc1cc2c(Oc3ccc(NC(=O)NCCC(C)(C)C)cc3)ccnc2cc1OCCN1CCC(c2ccccc2)CC1` [Compound 121, 1-(3,3-Dimethyl-butyl)-3-(4-{6-methoxy-7-[2-(4-phenyl-piperidin-1-yl)-ethoxy]-quinolin-4-yloxy}-phenyl)-urea], 0.088 µM; for `COc1cc2c(Oc3ccc(Nc4ccc(C(C)(C)C)cc4)cc3)ccnc2cc1OCCCN(CCO)CCO` [Compound 51, 2-[(3-{4-[4-(4-Tert-butylphenylamino)phenoxy]-6-methoxy-quinolin-7-yloxy}propyl)-(2-hydroxyethyl)amino]ethanol], 0.0306 µM.
`COc1cc2c(Oc3ccc(Nc4ccc(C(C)C)cc4)cc3)ccnc2cc1OCC(=O)N1CCOCC1` [Compound 229, 2-{4-[4-(4-Isopropyl-phenylamino)-phenoxy]-6-methoxy-quinolin-7-yloxy}-1-morpholin-4-yl-ethanone]: the IC50 is 0.156 µM.
Take `COc1cc2nccc(Oc3ccc(NC(=O)NCCC(C)(C)C)cc3OC)c2cc1OC` [Compound 139, 1-[4-(6,7-Dimethoxy-quinolin-4-yloxy)-3-methoxy-phenyl]-3-(3,3-dimethyl-butyl)-urea]: the IC50 came out at 1.16 µM.
